Test results reported in PMC5090206, “Fluselenamyl: A Novel Benzoselenazole Derivative for PET Detection of Amyloid Plaques (Aβ) in Alzheimer’s Disease” (Scientific Reports, 2016).

Legend:
[1] = Human serum stability by radio-HPLC; assay type: in vitro ADME; details: 37 °C
Description: For biomedical imaging applications, the signal is a net function of target/background ratio. In PET imaging, this signal results from detection of γ-photons arising from annihilation events of positrons and imaging resolution is also dependent upon energy associated with a given radionuclide. Resultant radioactive metabolites could also contribute to nonspecific binding or compete with the parental tracer for binding to the target. Therefore, it is also important to investigate metabolic stability of the radiotracer to explicitly confirm whether or not biochemical targeting profiles of a given tracer are driven by a parental molecular imaging probe. […]
Binding assays were performed using previously described methods.11 Briefly, a fixed concentration (0.25 µM/well) of Aβ1–42 fibrils was incubated for 1 h at 37 °C with increasing concentrations of [18F]-9 (0.1 nM-15 nM) in 30 mM Tris-HCl pH 7.4, 0.1% BSA in a reaction volume of 150 µl. […] The exact hot:cold ([18F]-9 : 5) ratio was measured in each experiment by counting an aliquot of a sample (2 µl) of the radioligand preparation in a scintillation counter. Binding of [18F]-9 to human brain homogenates was assessed by incubating samples of insoluble fraction (1.25 µg insoluble protein/well) from AD subjects, with increasing concentrations of [18F]-9 (0.1nM-18 nM) for 1 h at 37 °C. […]

cortical Aβ plaques = cortical Aβ plaques (Homo sapiens, UniProt P05067); assay: In vitro autoradiography of AD frontal cortex sections; assay type: binding
Experimental: Literature precedents indicate the presence of at least three different binding sites, characterized as BS1, BS2 and BS3 on the Aβ fibrils in vitro[24] and extracts from AD homogenates. […] Overall, these investigations indicate that different PET tracers may be beneficial to better understand Aβ pathophysiology in vivo. […] Further, to evaluate ability of [^18F]-9 for labeling Aβ in autopsy confirmed human brain sections, autoradiography and immunohistochemical correlations were also performed.
Scientific Reports Version of August 4, 2016
Autoradiography of Human Brain Sections and Immunohistochemistry Correlation Autoradiography and immunohistochemistry (IHC) were performed as previously described14 with minor modifications. Briefly, a sample of frozen AD frontal cortex was sectioned using a TBS Minotome PLUS Cryostat set at a thickness of 12 microns. The tissue sections were thaw-mounted onto Superfrost Plus (Fisherbrand 12-550-15) microscope slides and allowed to air dry for 10–15 min prior to storage at -80 °C. […]
Autoradiography images were obtained on GE Typhoon System FLA-9500 (Tokyo, Japan) at 25 µm resolution. […] IHC images were obtained on a NanoZoomer 2.0-HT System ([…]) at 20x resolution with DAPI and TRITC fluorescence filters using NDP.scan 2.5 software ([…]). […]

cortical Aβ plaques, sequence (P05067 672-711 limits assumed): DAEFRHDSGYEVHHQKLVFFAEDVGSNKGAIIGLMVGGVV

Row | SMILES | presence of parental tracer (single radio-peak) in human serum [1] | presence of parental tracer (single radio-peak) in human serum ([1]; listed as 18F-9) | labeling in autoradiography (cortical Aβ plaques; 2 nM, 60 min, AD frontal cortex sections (12 μm)) | effect on [18F]-9 binding in autoradiography (cortical Aβ plaques; 1 μM cold ligand with 2 nM [18F]-9)
1 | CN(C)c1ncc(/C=C\c2nc3cc(OCC[18F])ccc3[se]2)cn1 [[^18F]-9] | up to 3 h | 3 h | showed labeling of cortical Aβ plaques | 
2 | CN(C)c1ncc(/C=C\c2nc3cc(OCCF)ccc3[se]2)cn1 [compound 5, (Z)-5-(2-(5-(2-fluoroethoxy)benzo[d][1,3]selenazol-2-yl)vinyl)-N,N-dimethylpyrimidin-2-amine] |  |  |  | binding was inhibited
